# Source: patent US4740233A, “Substituted 1,2,4-triazolo[1,5-a]-pyrimidine-2-sulfonamides and compositions and methods of controlling undesired vegetation and suppressing the nitrification of ammonium nitrogen in soil” (The Dow Chemical Company, priority 1986, dated 1988)
# Tests used:
# pigweed = test: Postemergent control of plant species; format: in vivo, Amaranthus spp.
# Summary of the method: (§1)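 Spray emulsion: acetone stock at twice final concentration plus equal volume water with 0.1% wetting agent, applied to separated greenhouse beds at 2-4 leaf stage. Assessed at ~two weeks; score reflects growth reduction compared with untreated plants.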
# wild oats [1] = test: Postemergent control of plant species; format: in vivo, Avena fatua
# Summary of the method: as §1
# barnyardgrass [2] = test: Control of aquatic plant species (paddy water); format: in vivo, Echinochloa crusgalli; conditions: nine days
# Experimental: In testing for such utility, the plant species to be tested were transplanted into 16 oz. containers into about 2 inches of soil when they were in the 1-2 inch stage and then flooded to a depth of about 1 inch. An acetone concentrate of the chemical to be tested was then injected into the paddy water, the volume injected being varied as desired to provide the desired concentration. Percent control was evaluated nine days after application.
# wheat [3] = test: Postemergent control of plant species; format: in vivo, Triticum aestivum
# Summary of the method: as §1
# yellow nutsedge [4] = test: Control of aquatic plant species (paddy water); format: in vivo, Cyperus esculentus; conditions: nine days
# Summary of the method: (§2)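 Compound, delivered as an acetone concentrate, is injected directly into paddy water over transplanted 1-2 inch plants flooded about 1 inch deep, with dose set by injected volume; percent control is read nine days later.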
# rice [5] = test: Control of aquatic plant species (paddy water); format: in vivo, Oryza sativa; conditions: nine days
# Summary of the method: as §2
# velvetleaf [6] = test: Postemergent control of plant species; format: in vivo, Abutilon theophrasti
# Summary of the method: as §1
# [7] = system: nitrification of ammonium nitrogen; test: Suppression of nitrification of ammonium nitrogen in soil; conditions: 27° C.
# Summary of the method: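 Value is % NH4-N remaining after a two-week, 27° C incubation of treated soil held at 1/3 bar tension moisture. Nitrate was measured with an ion-selective electrode after extraction with ammonium sulfate solution and 10 min shaking.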
# annual morning glory [8] = test: Postemergent control of plant species; format: in vivo, Ipomoea spp.
# Summary of the method: as §1
# sorghum [9] = test: Postemergent control of plant species; format: in vivo, Sorghum vulgare
# Summary of the method: as §1
# crabgrass [10] = test: Postemergent control of plant species; format: in vivo, Digitaria spp.
# Summary of the method: as §1
# sugar beet [11] = test: Postemergent control of plant species; format: in vivo, Beta saccharifera
# Summary of the method: as §1
# sprangletop = test: Control of aquatic plant species (paddy water); format: in vivo, Leptochloa filiformis; conditions: nine days
# Summary of the method: as §2
# jimsonweed [12] = test: Postemergent control of plant species; format: in vivo, Datura stramonium
# Summary of the method: as §1
# rice [13] = test: Postemergent control of plant species; format: in vivo, Oryza sativa
# Summary of the method: as §1
# barnyardgrass [14] = test: Postemergent control of plant species; format: in vivo, Echinochloa crusgalli
# Summary of the method: as §1
# cocklebur = test: Postemergent control of plant species; format: in vivo, Xanthium spp.
# Summary of the method: as §1
# cotton [15] = test: Postemergent control of plant species; format: in vivo, Gossypium spp.
# Summary of the method: as §1
# johnson grass [16] = test: Postemergent control of plant species; format: in vivo, Sorghum halepense
# Summary of the method: as §1
# yellow foxtail [17] = test: Postemergent control of plant species; format: in vivo, Setaria lutescens
# Summary of the method: as §1
# rape [18] = test: Postemergent control of plant species; format: in vivo, Brassica napus
# Summary of the method: as §1
# yellow nutsedge [19] = test: Postemergent control of plant species; format: in vivo, Cyperus esculentus
# Summary of the method: as §1
# soybean [20] = test: Postemergent control of plant species; format: in vivo, Glycine max.
# Summary of the method: as §1
# corn [21] = test: Postemergent control of plant species; format: in vivo, Zea mays
# Summary of the method: as §1
# wheat [22] = test: Preemergent control of plant species; format: in vivo, Triticum aestivum; conditions: Triticum aestivum, pre-emergence, 336 h; 0.25 lb/acre; read-out: percent preemergent control
# Summary of the method: (§3)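 Test compositions were applied evenly to the surface of freshly seeded soil beds and kept under greenhouse conditions for two weeks. Percent control reflects growth reduction compared with water-treated beds of the same species.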
# barnyardgrass [23] = test: Preemergent control of plant species; format: in vivo, Echinochloa crusgalli; conditions: Echinochloa crus-galli, pre-emergence, 336 h; 0.25 lb/acre; read-out: percent preemergent control
# Summary of the method: as §3
# yellow foxtail [24] = test: Preemergent control of plant species; format: in vivo, Setaria lutescens; conditions: Setaria, pre-emergence, 336 h; 0.25 lb/acre; read-out: percent preemergent control
# Summary of the method: as §3
# johnson grass [25] = test: Preemergent control of plant species; format: in vivo, Sorghum halepense; conditions: Sorghum halepense, pre-emergence, 336 h; 0.25 lb/acre; read-out: percent preemergent control
# Summary of the method: as §3
# crabgrass [26] = test: Preemergent control of plant species; format: in vivo, Digitaria spp.; conditions: Digitaria sanguinalis, pre-emergence, 336 h; 0.25 lb/acre; read-out: percent preemergent control
# Experimental: The seeds of various species of plants were planted in beds of good agricultural soil in a greenhouse. A number of compositions of the present invention, generally in the nature of an aqueous emulsion, were applied at rates listed in the table so as to deposit a predetermined amount of active ingredients uniformly throughout the surface of the bed. Another seed bed was treated only with water to serve as a control. After treatment the seed beds were maintained for two weeks under greenhouse conditions conducive for good plant growth and watered as necessary. Control refers to the reduction in growth compared to the observed results of the same untreated species.
# sorghum [27] = test: Preemergent control of plant species; format: in vivo, Sorghum vulgare; conditions: Sorghum, pre-emergence, 336 h; 0.25 lb/acre; read-out: percent preemergent control
# Summary of the method: as §3
# velvetleaf [28] = test: Preemergent control of plant species; format: in vivo, Abutilon theophrasti; conditions: Abutilon theophrasti, pre-emergence, 336 h; 0.25 lb/acre; read-out: percent preemergent control
# Summary of the method: as §3
# annual morning glory [29] = test: Preemergent control of plant species; format: in vivo, Ipomoea spp.; conditions: Ipomoea, pre-emergence, 336 h; 0.25 lb/acre; read-out: percent preemergent control
# Summary of the method: as §3
# soybean [30] = test: Preemergent control of plant species; format: in vivo, Glycine max.; conditions: Glycine max, pre-emergence, 336 h; 0.25 lb/acre; read-out: percent preemergent control
# Summary of the method: as §3
# rice [31] = test: Preemergent control of plant species; format: in vivo, Oryza sativa; conditions: Oryza sativa, pre-emergence, 336 h; 0.25 lb/acre; read-out: percent preemergent control
# Summary of the method: as §3
# jimsonweed [32] = test: Preemergent control of plant species; format: in vivo, Datura stramonium; conditions: Datura stramonium, pre-emergence, 336 h; 0.25 lb/acre; read-out: percent preemergent control
# Summary of the method: as §3
# wild oats [33] = test: Preemergent control of plant species; format: in vivo; conditions: Avena fatua, pre-emergence, 336 h; 0.25 lb/acre; read-out: percent preemergent control
# Summary of the method: as §3
# sugar beet [34] = test: Preemergent control of plant species; format: in vivo, Beta saccharifera; conditions: Beta vulgaris, pre-emergence, 336 h; 0.25 lb/acre; read-out: percent preemergent control
# Summary of the method: as §3
# rape [35] = test: Preemergent control of plant species; format: in vivo, Brassica napus; conditions: Brassica napus, pre-emergence, 336 h; 0.25 lb/acre; read-out: percent preemergent control
# Summary of the method: as §3
# yellow nutsedge [36] = test: Preemergent control of plant species; format: in vivo, Cyperus esculentus; conditions: Cyperus, pre-emergence, 336 h; 0.25 lb/acre; read-out: percent preemergent control
# Summary of the method: as §3
# cotton [37] = test: Preemergent control of plant species; format: in vivo, Gossypium spp.; conditions: Gossypium hirsutum, pre-emergence, 336 h; 0.25 lb/acre; read-out: percent preemergent control
# Summary of the method: as §3
# corn [38] = test: Preemergent control of plant species; format: in vivo, Zea mays; conditions: Zea mays, pre-emergence, 336 h; 0.25 lb/acre; read-out: percent preemergent control
# Summary of the method: as §3
structure (smiles),measurement,setting,value
"Cc1cc(C)n2nc(S(=O)(=O)Nc3c(C)cccc3C)nc2n1 [Compound 32, 5,7-dimethyl-N-(2,6-dimethylphenyl)-1,2,4-triazolo[1,5-a]pyrimidine-2-sulfonamide]",pest or weed control at 500 ppm,"pigweed; Amaranthus retroflexus, post-emergence, 336 h, read-out: percent postemergent control",0%
same,pest or weed control at 500 ppm,"wild oats [1]; Avena fatua, post-emergence, 336 h, read-out: percent postemergent control",0%
same,pest or weed control at 500 g/ha,"barnyardgrass [2]; Echinochloa crus-galli, 216 h, 0.5 Kg/Ha, read-out: Percent control",97%
same,plant injury at 500 ppm,"wheat [3]; Triticum aestivum, post-emergence, 336 h, read-out: percent postemergent control",30%
same,pest or weed control at 500 g/ha,"yellow nutsedge [4]; Cyperus, 216 h, 0.5 Kg/Ha, read-out: Percent control",95%
same,pest or weed control at 500 g/ha,"rice [5]; Oryza sativa, 216 h, 0.5 Kg/Ha, read-out: Percent control",93%
same,pest or weed control at 500 ppm,"velvetleaf [6]; Abutilon theophrasti, post-emergence, 336 h, read-out: percent postemergent control",50%
same,% NH4-N Remaining After 2 Weeks Incubation,[7]; 0.01 ppm,0%
same,% NH4-N Remaining After 2 Weeks Incubation,[7]; 0.1 ppm,33%
same,% NH4-N Remaining After 2 Weeks Incubation,[7]; 1 ppm,82%
same,% NH4-N Remaining After 2 Weeks Incubation,[7]; 10 ppm,100%
same,pest or weed control at 500 ppm,"annual morning glory [8]; Ipomoea, post-emergence, 336 h, read-out: percent postemergent control",0%
same,plant injury at 500 ppm,"sorghum [9]; Sorghum, post-emergence, 336 h, read-out: percent postemergent control",0%
same,pest or weed control at 500 ppm,"crabgrass [10]; Digitaria sanguinalis, post-emergence, 336 h, read-out: percent postemergent control",10%
same,plant injury at 500 ppm,"sugar beet [11]; Beta vulgaris, post-emergence, 336 h, read-out: percent postemergent control",30%
same,pest or weed control at 500 g/ha,"sprangletop; Leptochloa filiformis, 216 h, 0.5 Kg/Ha, read-out: Percent control",95%
same,pest or weed control at 500 ppm,"jimsonweed [12]; Datura stramonium, post-emergence, 336 h, read-out: percent postemergent control",60%
same,plant injury at 500 ppm,"rice [13]; Oryza sativa, post-emergence, 336 h, read-out: percent postemergent control",10%
same,pest or weed control at 500 ppm,"barnyardgrass [14]; Echinochloa crus-galli, post-emergence, 336 h, read-out: percent postemergent control",0%
same,pest or weed control at 500 ppm,"cocklebur; Xanthium strumarium, post-emergence, 336 h, read-out: percent postemergent control",15%
same,plant injury at 500 ppm,"cotton [15]; Gossypium hirsutum, post-emergence, 336 h, read-out: percent postemergent control",20%
same,pest or weed control at 500 ppm,"johnson grass [16]; Sorghum halepense, post-emergence, 336 h, read-out: percent postemergent control",95%
same,pest or weed control at 500 ppm,"yellow foxtail [17]; Setaria, post-emergence, 336 h, read-out: percent postemergent control",10%
same,plant injury at 500 ppm,"rape [18]; Brassica napus, post-emergence, 336 h, read-out: percent postemergent control",0%
same,pest or weed control at 500 ppm,"yellow nutsedge [19]; Cyperus, post-emergence, 336 h, read-out: percent postemergent control",0%
same,plant injury at 500 ppm,"soybean [20]; Glycine max, post-emergence, 336 h, read-out: percent postemergent control",15%
same,plant injury at 500 ppm,"corn [21]; Zea mays, post-emergence, 336 h, read-out: percent postemergent control",0%
COc1cccc(C(F)(F)F)c1NS(=O)(=O)c1nc2nc(C)cc(C)n2n1 [Compound 104],plant injury at 280.212 g/ha,wheat [22],100%
same,pest or weed control at 280.212 g/ha,barnyardgrass [23],100%
same,pest or weed control at 280.212 g/ha,yellow foxtail [24],100%
same,pest or weed control at 280.212 g/ha,johnson grass [25],100%
same,pest or weed control at 280.212 g/ha,crabgrass [26],100%
same,plant injury at 280.212 g/ha,sorghum [27],100%
same,pest or weed control at 280.212 g/ha,velvetleaf [28],100%
same,pest or weed control at 280.212 g/ha,annual morning glory [29],100%
same,plant injury at 280.212 g/ha,soybean [30],100%
same,plant injury at 280.212 g/ha,rice [31],100%
same,pest or weed control at 280.212 g/ha,jimsonweed [32],100%
same,pest or weed control at 280.212 g/ha,wild oats [33],100%
same,plant injury at 280.212 g/ha,sugar beet [34],100%
same,plant injury at 280.212 g/ha,rape [35],100%
same,pest or weed control at 280.212 g/ha,yellow nutsedge [36],100%
same,plant injury at 280.212 g/ha,cotton [37],100%
same,plant injury at 280.212 g/ha,corn [38],100%
"Cc1nc2nc(S(=O)(=O)Nc3c(Cl)cccc3Cl)nn2c2c1CCC2 [Compound 108, 6,7-cyclopentano-5-methyl-N-(2,6-dichlorophenyl)-1,2,4-triazolo[1,5-a]pyrimidine-2-sulfonamide]",percent postemergent control,pigweed; 500 ppm,0%
same,percent postemergent control,wild oats [1]; 500 ppm,0%
same,Percent control,barnyardgrass [2]; 1.0 Kg/Ha,97%
same,percent postemergent control,wheat [3]; 500 ppm,60%
same,Percent control,yellow nutsedge [4]; 1.0 Kg/Ha,90%
same,Percent control,rice [5]; 1.0 Kg/Ha,97%
same,percent postemergent control,velvetleaf [6]; 500 ppm,90%
same,% NH4-N Remaining After 2 Weeks Incubation,[7]; 0.01 ppm,43%
same,% NH4-N Remaining After 2 Weeks Incubation,[7]; 0.1 ppm,69%
same,% NH4-N Remaining After 2 Weeks Incubation,[7]; 1 ppm,84%
same,% NH4-N Remaining After 2 Weeks Incubation,[7]; 10 ppm,90%
same,percent postemergent control,annual morning glory [8]; 500 ppm,10%
same,percent postemergent control,sorghum [9]; 500 ppm,80%
same,percent postemergent control,crabgrass [10]; 500 ppm,0%
same,percent postemergent control,sugar beet [11]; 500 ppm,70%
same,Percent control,sprangletop; 1.0 Kg/Ha,97%
same,percent postemergent control,jimsonweed [12]; 500 ppm,30%
same,percent postemergent control,rice [13]; 500 ppm,0%
same,percent postemergent control,barnyardgrass [14]; 500 ppm,100%
same,percent postemergent control,cocklebur; 500 ppm,80%
same,percent postemergent control,cotton [15]; 500 ppm,70%
same,percent postemergent control,johnson grass [16]; 500 ppm,100%
same,percent postemergent control,yellow foxtail [17]; 500 ppm,0%
same,percent postemergent control,rape [18]; 500 ppm,40%
same,percent postemergent control,yellow nutsedge [19]; 500 ppm,35%
same,percent postemergent control,soybean [20]; 500 ppm,75%
same,percent postemergent control,corn [21]; 500 ppm,80%
